Data reported in ChEMBL document CHEMBL6153105, “MDN-0057 to MDN-0060, a Family of Broad-Spectrum Antibiotics against Gram-Negative Pathogens Produced by Ophiosphaerella korrae” (2025).
≈ marks a conversion by molar mass, not a printed value.

Key:
Format in all cases: functional
Acinetobacter baumannii = assay: Antibacterial activity against Acinetobacter baumannii MB5973 incubated for 20 hrs
Pseudomonas aeruginosa = assay: Antibacterial activity against Pseudomonas aeruginosa ATCC 27853 incubated for 20 hrs
Escherichia coli = assay: Antibacterial activity against Escherichia coli ATCC 25922 incubated for 20 hrs

SMILES | MIC (Acinetobacter baumannii) [µg/mL] | MIC (Pseudomonas aeruginosa) [µg/mL] | MIC (Escherichia coli) [µg/mL]
[C-]#[N+]C(=C)[C@](Cc1ccc(OC)cc1)([N+]#[C-])[C@H]1C[C@@H](O)CC[C@@H]1OC(C)=O | 0.5 (≈ 1.36 µM) | 16 (≈ 43.4 µM) | 
[C-]#[N+]C(=C)[C@](Cc1ccc(OC)cc1)([N+]#[C-])[C@H]1C[C@@H](O)CC[C@@H]1OC(=O)CO | 0.25 (≈ 0.65 µM) | 2 (≈ 5.2 µM) | 16 (≈ 41.6 µM)
[C-]#[N+]C(=C)[C@](Cc1ccc(OC)cc1)([N+]#[C-])[C@H]1C[C@@H](O)C=C[C@@H]1OC(=O)CO | 0.25 (≈ 0.654 µM) | 64 (≈ 167 µM) | 16 (≈ 41.8 µM)
[C-]#[N+]C(=C)[C@](Cc1ccc(OC)cc1)([N+]#[C-])[C@H]1C[C@@H](O)C=C[C@@H]1OC(C)=O | 1 (≈ 2.73 µM) | 32 (≈ 87.3 µM) | 
C[C@H]1[C@H](NC(=O)/C(=N\OC(C)(C)C(=O)O)c2csc(N)n2)C(=O)N1S(=O)(=O)O [AZTREONAM] |  |  | 0.25 (≈ 0.574 µM)
CO[C@H]1/C=C/O[C@@]2(C)Oc3c(C)c(O)c4c(O)c(c(/C=N/N5CCN(C)CC5)c(O)c4c3C2=O)NC(=O)/C(C)=C\C=C\[C@H](C)[C@H](O)[C@@H](C)[C@@H](O)[C@@H](C)[C@H](OC(C)=O)[C@@H]1C [RIFAMPIN] | 2.5 (≈ 3.04 µM) |  | 
